# Assay results taken from patent US20250089717A1, “FUNGICIDAL HALOMETHYL KETONES, HYDRATES AND ENOL ETHERS AND THEIR MIXTURES” (FMC CORPORATION, priority 2023, published 2025).
# Where “and” joins values, the source holds several entries; their conditions need not be identical. Equal entries are not always repeated.
# Tested on: Phakopsora pachyrhizi
# Experiment: Test A: preventive spray on soybean seedlings, Asian soybean rust, visual disease rating
# Type: in vivo
# Conditions: rate 10 ppm
# Excerpt: General protocol for preparing test suspensions for Test A: the test compounds were first dissolved in acetone in an amount equal to 3% of the final volume and then suspended at the desired concentration (in ppm) in acetone and purified water (50/50 mix by volume) containing 250 ppm of the surfactant PEG400 (polyhydric alcohol esters). The resulting test suspensions were then used in Test A.
# The test solution was sprayed to the point of run-off on soybean seedlings. The following day the seedlings were inoculated with a spore suspension of Phakopsora pachyrhizi (the causal agent of Asian soybean rust) and incubated in a saturated atmosphere at 22° C. for 24 h and then moved to a growth chamber at 22° C. for 8 days, after which time visual disease ratings were made.
# A rating of 100 indicates 100% disease control and a rating of 0 indicates no disease control (relative to the controls).
row,Structure (SMILES),"Test A rating (100 = 100% disease control, 0 = no disease control relative to the controls)"
1,CCO/C(=C\Oc1ccc(Cn2cc(C(=O)N(C)OCC3CC3)cn2)cc1)C(F)(F)F [compound 39],100%
2,CCO/C(=C\Oc1ccc(Cn2cc(C(=O)NOCC3CC3)cn2)c(F)c1)C(F)(F)F [Compound 82],100%
3,CCO/C(=C\Oc1ccc(Cn2cc(COC(=O)C3CC3)cn2)cc1)C(F)(F)F [compound 51],100%
4,CCO/C(=C\Oc1ccc(Cn2cc(COC(=O)C3CC3)cn2)c(F)c1F)C(F)(F)F [Compound 71],100%
5,CCO/C(=C\Oc1ccc(Cn2cccc(C(=O)NOCC#N)c2=O)cc1)C(F)(F)F [compound 98],99%
6,CCO/C(=C\Oc1ccc(Cn2cc(COC(=O)CC(C)(C)C)cn2)cc1)C(F)(F)F [compound 49],99%
7,CCOC(=O)OCc1cnn(Cc2ccc(O/C=C(\OCC)C(F)(F)F)cc2)c1 [compound 53],100%
8,"CCO/C(=C\Oc1ccc(Cn2cc(COC(=O)C(=O)OC)cn2)cc1)C(F)(F)F [Compound 48, 1-[[1-[[4-[[(1Z)-2-ethoxy-3,3,3-trifluoro-1-propen-1-yl]oxy]phenyl]methyl]-1H-pyrazol-4-yl]methyl]2-methyl ethanedioate]",100%
9,C=CCON=C(OCCCC)c1cnn(Cc2ccc(O/C=C(\OCC)C(F)(F)F)cc2)c1 [compound 42],96%
10,"CCO/C(=C\Oc1ccc(Cc2ccnc(C(=O)NOCC(F)(F)F)c2)cc1)C(F)(F)F [Compound 133, 4-[[4-1[[(1Z)-2-ethoxy-3,3,3-trifluoro-1-propen-1-yl]oxy]phenyl]methyl]-N-(2,2,2-trifluoroethoxy)-2-pyridinecarboxamide]",100%
11,"C#CCONC(=O)c1cc(Cc2ccc(O/C=C(\OCC)C(F)(F)F)cc2)ccn1 [Compound 131, 4-[[4-1[[(1Z)-2-ethoxy-3,3,3-trifluoro-1-propen-1-yl]oxy]phenyl]methyl]-N-(2-propyn-1-yloxy)-2-pyridinecarboxamide]",100%
12,CCO/C(=C\Oc1ccc(Cn2cc(COC(C)=O)nn2)cc1)C(F)(F)F [Compound 37],100%
13,CCO/C(=C\Oc1ccc(Cn2cc(C(=O)NOCC3CC3)cn2)c(F)c1F)C(F)(F)F [Compound 80],100%
14,"C#CCONC(=O)c1cccc(Cc2ccc(O/C=C(\OCC)C(F)(F)F)cc2)n1 [Compound 125, 2-[[4-1[[(1Z)-2-ethoxy-3,3,3-trifluoro-1-propen-1-yl]oxy]phenyl]methyl]-N-(2-propyn-1-yloxy)-6-pyridinecarboxamide]",100%
15,CCO/C(=C\Oc1ccc(Cn2cc(C(=NOCC3CC3)OC)cn2)cc1)C(F)(F)F [compound 34],97%
16,C#CCONC(=O)c1cccn(Cc2ccc(O/C=C(\OCC)C(F)(F)F)cc2)c1=O [compound 100],98%
17,CCO/C(=C\Oc1ccc(Cn2cc(C(=O)NOCC#N)cn2)c(F)c1F)C(F)(F)F [Compound 78],100%
18,C#CCC(=O)OCc1cnn(Cc2ccc(O/C=C(\OCC)C(F)(F)F)cc2)c1 [compound 44],100%
19,C#CCOCc1cnn(Cc2ccc(O/C=C(\OCC)C(F)(F)F)cc2)c1 [compound 65],100%
20,CCO/C(=C\Oc1ccc(Cn2cc(COC3CCC3)cn2)cc1)C(F)(F)F [compound 59],100%
21,CCO/C(=C\Oc1ccc(Cn2cc(COC(=O)CC)cn2)c(F)c1)C(F)(F)F [Compound 77],100%
22,"C=CCON(CC)C(=O)c1cnn(Cc2ccc(O/C=C(\OCC)C(F)(F)F)cc2)c1 [Compound 55, ethyl 1-[[4-[[(1Z)-2-ethoxy-3,3,3-trifluoro-1-propen-1-yl]oxy]phenyl]methyl]-N-(2-propen-1-yloxy)-1H-pyrazole-4-carboxamide]",100%
23,CCO/C(=C\Oc1ccc(Cn2cc(COCC3(C)CC3)cn2)cc1)C(F)(F)F [compound 57],100%
24,C#CCON(C)C(=O)c1cccn(Cc2ccc(O/C=C(\OCC)C(F)(F)F)cc2)c1=O [compound 99],92%
25,C=C=CC(=O)NCc1cnn(Cc2ccc(OCC3(C(F)(F)F)OCCO3)cc2)c1 [Compound 84],99%
26,C=CCONC(=O)c1cn(Cc2ccc(O/C=C(\OCC)C(F)(F)F)cc2)nn1 [Compound 83],99%
27,C#CCOCc1cn(Cc2ccc(O/C=C(\OCC)C(F)(F)F)cc2)nn1 [Compound 38],78% and 88%
28,CCO/C(=C\Oc1ccc(Cn2cc(C(=O)NOCC(F)(F)F)cn2)c(F)c1F)C(F)(F)F [Compound 79],100%
29,CCO/C(=C\Oc1ccc(Cn2cc(COC(=O)C3CCCC3)cn2)cc1)C(F)(F)F [compound 29],100%

# Same assay, conditions: rate 10 ppm, read-out: Test A rating (100 = 100% disease control, 0 = no disease control relative to the controls)
row,Structure (SMILES),pest or weed control at 10 ppm [%]
1,C=CCONC(=O)c1csc(Cc2ccc(O/C=C(\OCC)C(F)(F)F)cc2)n1 [compound 117],100
2,"CCO/C(=C\Oc1ccc(Cn2cc(COC(=O)N(C)OC)cn2)cc1)C(F)(F)F [Compound 18, (Z)-(1-(4-((2-ethoxy-3,3,3-trifluoroprop-1-en-1-yl)oxy)benzyl)-1H-pyrazol-4-yl)methyl methoxy(methyl)carbamate]",100
3,"CCO/C(=C\Oc1ccc(Cn2cc(C(=O)NOCc3ccccc3)cn2)cc1)C(F)(F)F [Compound 31, 1-[[4-[[(1Z)-2-ethoxy-3,3,3-trifluoro-1-propen-1-yl]oxy]phenyl]methyl]-N-(phenylmethoxy)-1H-pyrazole-4-carboxamide]",100
4,"CCO/C(=C\Oc1ccc(Cn2cc(COC(=O)COC)cn2)cc1)C(F)(F)F [Compound 23, [1-[[4-[[(1Z)-2-ethoxy-3,3,3-trifluoro-1-propen-1-yl]oxy]phenyl]methyl]-1H-pyrazol-4-yl]methyl 2-methoxyacetate]",100
5,C=CCO/N=C(/OCC)c1ccn(Cc2ccc(O/C=C(\OCC)C(F)(F)F)cc2)n1 [compound 110],99
6,"CCO/C(=C\Oc1ccc(Cn2cc(COC(=O)CC(F)(F)F)cn2)cc1)C(F)(F)F [Compound 35, [1-[[4-[[(1Z)-2-ethoxy-3,3,3-trifluoro-1-propen-1-yl]oxy]phenyl]methyl]-1H-pyrazol-4-yl]methyl 3,3,3-trifluoropropanoate]",100
7,C=CCO/N=C(\OCC)c1cc(Cc2ccc(O/C=C(\OCC)C(F)(F)F)cc2)ccn1 [compound 118],100
8,"C=CCONC(=O)c1cccc(Cc2ccc(O/C=C(\OCC)C(F)(F)F)cc2)n1 [Compound 109, 2-[[4-[[(1Z)-2-ethoxy-3,3,3-trifluoro-1-propen-1-yl]oxy]phenyl]methyl]-N-(2-propen-1-yloxy)-6-pyridinecarboxamide]",100
9,C=CCON(C)C(=O)c1cc(Cc2ccc(OCC3(C(F)(F)F)OCCO3)cc2)ccn1 [compound 130],99
10,"CCO/C(=C\Oc1ccc(Cn2cc(C(=O)NOCC(F)(F)F)cn2)cc1)C(F)(F)F [Compound 45, 1-[[4-[[(1Z)-2-ethoxy-3,3,3-trifluoro-1-propen-1-yl]oxy]phenyl]methyl]-N-(2,2,2-trifluoroethoxy)-1H-pyrazole-4-carboxamide]",100
11,"CCCC(C)C(=O)OCc1cnn(Cc2ccc(O/C=C(\OCC)C(F)(F)F)cc2)c1 (centres unmarked) [Compound 30, [1-[[4-[[(1Z)-2-ethoxy-3,3,3-trifluoro-1-propen-1-yl]oxy]phenyl]methyl]-1H-pyrazol-4-yl]methyl 2-methylpentanoate]",100
12,C=CCON(C)C(=O)c1cc(Cc2ccc(O/C=C(\OCC)C(F)(F)F)cc2)ccn1 [compound 135],100
13,"CCO/C(=C\Oc1ccc(Cc2cccc(C(=O)N(C)OCC(F)(F)F)n2)cc1)C(F)(F)F [Compound 120, 2-[[4-[[(1Z)-2-ethoxy-3,3,3-trifluoro-1-propen-1-yl]oxy]phenyl]methyl]-N-(2,2,2-trifluoroethoxy)-N-methyl-6-pyridinecarboxamide]",100

# Same assay, conditions: rate 50 ppm
row,Structure (SMILES),"Test A rating (100 = 100% disease control, 0 = no disease control relative to the controls) [%]"
1,CC(C)CC(=O)OCc1cnn(Cc2ccc(OCC3(C(F)(F)F)OCCO3)cc2)c1 [Compound 92],100
2,C=CCC(=O)OCc1cnn(Cc2ccc(OCC3(C(F)(F)F)OCCO3)cc2)c1 [Compound 89],100
3,C#CCOCc1cnn(Cc2ccc(OCC3(C(F)(F)F)OCCO3)cc2)c1 [Compound 94],100
4,CCOC(=O)C(=O)OCc1cnn(Cc2ccc(OCC3(C(F)(F)F)OCCO3)cc2)c1 [Compound 91],100

# Same assay, conditions: rate 250 ppm, read-out: Test A rating (100 = 100% disease control, 0 = no disease control relative to the controls)
row,Structure (SMILES),pest or weed control at 250 ppm [%]
1,C=CCON(CC)C(=O)c1cccc(Cc2ccc(O/C=C(\OCC)C(F)(F)F)cc2)c1 [compound 128],100
